From publication PMC7551932 (Toxins, 2020)
Entries after “also recorded” stand apart in the source; their conditions may differ. Where a SMILES comes first, the peptide text is derived from it. Bridges are numbered along the chain shown (N, C = ends). Where no end group is shown, it is not given here.

Columns and labels:
NaV1.7 over NaV1.4 = assay: Selectivity of NaV1.7 over NaV1.4; assay type: cell-based; conditions: Cl6a
mNaV1.6 = target: T1, mNaV1.6 (Mus musculus, UniProt Q9WTU3); assay: cell-based; assay type: cell-based
T1 construct: expressed in transfected cells; host or cells: HEK293T

rNaV1.4 = target: T2, rNaV1.4 (Rattus norvegicus, UniProt P15390); assay: cell-based; assay type: cell-based
T2 construct: expressed in transfected cells; host or cells: HEK293T

rNaV1.2 = target: T3, rNaV1.2 (Rattus norvegicus, UniProt P04775); assay: cell-based; assay type: cell-based
T3 construct: expressed in transfected cells; host or cells: HEK293T

hNaV1.9 = assay type: cell-based, human
rNaV1.3 = target: T4, rNaV1.3 (Rattus norvegicus, UniProt P08104); assay: cell-based; assay type: cell-based
T4 construct: expressed in transfected cells; host or cells: HEK293T

NaV1.7 [1] = target: T5, NaV1.7 (Homo sapiens, UniProt Q15858); assay: Time course of block and washout of NaV1.7 peak current; conditions: 100 nM toxin, n = 3
hNaV1.7 = target: T6, hNaV1.7 (Homo sapiens, UniProt Q15858); assay: cell-based; assay type: cell-based
T6 construct: expressed in transfected cells; host or cells: HEK293T

[2] = tested on: TTX-R sodium channels (NaV1.5, NaV1.8, and NaV1.9); assay type: cell-based
hNaV1.5 = assay type: cell-based, human
[3] = tested on: TTX-S sodium channels (NaV1.2–1.4, NaV1.6, and NaV1.7); assay type: cell-based
rNaV1.8 = assay type: cell-based, rat
NaV1.7 [4] = target: T5, NaV1.7; assay: NaV1.7 gating kinetics (I–V, activation, inactivation, repriming); conditions: 10 nM toxin; for Reduction of NaV1.7 channel current: at –5 mV, n = 10
N-type calcium channels = conditions: cited from earlier work
[5] = tested on: TTX-sensitive sodium channel; conditions: cited from earlier work
NaV1.7 [6] = conditions: cited from earlier work

T5 sequence (Q07699 19-218): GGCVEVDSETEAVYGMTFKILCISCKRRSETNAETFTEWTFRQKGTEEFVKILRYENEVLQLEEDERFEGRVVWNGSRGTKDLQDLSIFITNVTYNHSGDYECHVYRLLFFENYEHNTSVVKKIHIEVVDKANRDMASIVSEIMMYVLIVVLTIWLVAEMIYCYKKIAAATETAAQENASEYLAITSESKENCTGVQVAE
T5 sequence (Q15858 other isoform, or with tags, fused parts or gaps): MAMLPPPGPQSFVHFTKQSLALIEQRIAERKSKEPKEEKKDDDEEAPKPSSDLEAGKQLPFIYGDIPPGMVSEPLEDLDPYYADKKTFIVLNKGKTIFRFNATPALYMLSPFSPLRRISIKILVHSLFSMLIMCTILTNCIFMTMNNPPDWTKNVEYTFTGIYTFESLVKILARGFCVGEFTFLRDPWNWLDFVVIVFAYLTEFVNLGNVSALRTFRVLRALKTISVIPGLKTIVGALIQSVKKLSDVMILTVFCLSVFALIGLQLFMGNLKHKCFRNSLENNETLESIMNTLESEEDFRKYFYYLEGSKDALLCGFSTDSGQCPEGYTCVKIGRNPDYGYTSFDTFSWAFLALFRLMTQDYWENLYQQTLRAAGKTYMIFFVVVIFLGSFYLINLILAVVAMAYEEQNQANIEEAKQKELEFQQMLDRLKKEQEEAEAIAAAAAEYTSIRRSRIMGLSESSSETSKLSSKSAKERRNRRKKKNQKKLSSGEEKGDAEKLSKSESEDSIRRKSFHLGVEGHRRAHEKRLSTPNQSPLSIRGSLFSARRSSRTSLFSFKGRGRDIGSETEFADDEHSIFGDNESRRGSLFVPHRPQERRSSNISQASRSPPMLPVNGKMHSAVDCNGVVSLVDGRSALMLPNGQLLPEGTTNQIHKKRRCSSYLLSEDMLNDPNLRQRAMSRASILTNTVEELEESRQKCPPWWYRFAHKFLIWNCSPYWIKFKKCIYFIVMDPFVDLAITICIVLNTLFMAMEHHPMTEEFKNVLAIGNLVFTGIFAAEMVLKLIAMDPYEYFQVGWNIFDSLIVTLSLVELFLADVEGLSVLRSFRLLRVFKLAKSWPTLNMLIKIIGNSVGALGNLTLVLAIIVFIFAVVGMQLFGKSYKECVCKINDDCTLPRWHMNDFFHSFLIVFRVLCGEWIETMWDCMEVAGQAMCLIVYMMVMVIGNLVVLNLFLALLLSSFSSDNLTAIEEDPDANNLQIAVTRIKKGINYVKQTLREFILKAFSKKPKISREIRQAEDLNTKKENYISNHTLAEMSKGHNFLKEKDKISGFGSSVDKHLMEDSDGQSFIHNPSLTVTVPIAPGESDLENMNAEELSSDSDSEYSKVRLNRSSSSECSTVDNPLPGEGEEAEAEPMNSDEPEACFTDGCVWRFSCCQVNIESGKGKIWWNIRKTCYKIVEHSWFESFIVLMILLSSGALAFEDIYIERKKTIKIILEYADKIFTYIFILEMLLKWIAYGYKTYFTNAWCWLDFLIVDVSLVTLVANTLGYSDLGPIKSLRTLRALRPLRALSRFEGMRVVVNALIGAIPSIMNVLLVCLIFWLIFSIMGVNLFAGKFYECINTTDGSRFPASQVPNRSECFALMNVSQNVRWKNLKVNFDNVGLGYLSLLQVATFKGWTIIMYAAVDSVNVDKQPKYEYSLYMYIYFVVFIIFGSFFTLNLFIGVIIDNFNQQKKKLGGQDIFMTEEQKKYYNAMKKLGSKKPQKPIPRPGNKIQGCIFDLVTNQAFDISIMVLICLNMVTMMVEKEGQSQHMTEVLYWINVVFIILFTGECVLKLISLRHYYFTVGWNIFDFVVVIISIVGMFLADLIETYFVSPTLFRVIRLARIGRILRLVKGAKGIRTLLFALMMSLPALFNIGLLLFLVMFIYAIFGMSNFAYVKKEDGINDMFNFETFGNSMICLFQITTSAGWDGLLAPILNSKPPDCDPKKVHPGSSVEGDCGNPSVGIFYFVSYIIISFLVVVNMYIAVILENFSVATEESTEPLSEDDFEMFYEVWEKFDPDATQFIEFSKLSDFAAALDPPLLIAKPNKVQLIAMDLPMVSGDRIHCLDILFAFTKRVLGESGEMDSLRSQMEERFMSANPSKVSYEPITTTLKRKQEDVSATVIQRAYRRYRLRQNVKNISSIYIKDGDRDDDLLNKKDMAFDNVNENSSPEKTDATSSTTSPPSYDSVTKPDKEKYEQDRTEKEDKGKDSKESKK
T5 sequence (O60939 30-215, further chain): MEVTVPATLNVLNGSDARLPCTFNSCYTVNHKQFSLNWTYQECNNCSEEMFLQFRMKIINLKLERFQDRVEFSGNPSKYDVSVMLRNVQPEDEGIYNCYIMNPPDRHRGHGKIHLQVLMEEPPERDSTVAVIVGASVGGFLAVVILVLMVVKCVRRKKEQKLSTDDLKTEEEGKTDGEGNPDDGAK
T4 sequence (P08104 whole entry): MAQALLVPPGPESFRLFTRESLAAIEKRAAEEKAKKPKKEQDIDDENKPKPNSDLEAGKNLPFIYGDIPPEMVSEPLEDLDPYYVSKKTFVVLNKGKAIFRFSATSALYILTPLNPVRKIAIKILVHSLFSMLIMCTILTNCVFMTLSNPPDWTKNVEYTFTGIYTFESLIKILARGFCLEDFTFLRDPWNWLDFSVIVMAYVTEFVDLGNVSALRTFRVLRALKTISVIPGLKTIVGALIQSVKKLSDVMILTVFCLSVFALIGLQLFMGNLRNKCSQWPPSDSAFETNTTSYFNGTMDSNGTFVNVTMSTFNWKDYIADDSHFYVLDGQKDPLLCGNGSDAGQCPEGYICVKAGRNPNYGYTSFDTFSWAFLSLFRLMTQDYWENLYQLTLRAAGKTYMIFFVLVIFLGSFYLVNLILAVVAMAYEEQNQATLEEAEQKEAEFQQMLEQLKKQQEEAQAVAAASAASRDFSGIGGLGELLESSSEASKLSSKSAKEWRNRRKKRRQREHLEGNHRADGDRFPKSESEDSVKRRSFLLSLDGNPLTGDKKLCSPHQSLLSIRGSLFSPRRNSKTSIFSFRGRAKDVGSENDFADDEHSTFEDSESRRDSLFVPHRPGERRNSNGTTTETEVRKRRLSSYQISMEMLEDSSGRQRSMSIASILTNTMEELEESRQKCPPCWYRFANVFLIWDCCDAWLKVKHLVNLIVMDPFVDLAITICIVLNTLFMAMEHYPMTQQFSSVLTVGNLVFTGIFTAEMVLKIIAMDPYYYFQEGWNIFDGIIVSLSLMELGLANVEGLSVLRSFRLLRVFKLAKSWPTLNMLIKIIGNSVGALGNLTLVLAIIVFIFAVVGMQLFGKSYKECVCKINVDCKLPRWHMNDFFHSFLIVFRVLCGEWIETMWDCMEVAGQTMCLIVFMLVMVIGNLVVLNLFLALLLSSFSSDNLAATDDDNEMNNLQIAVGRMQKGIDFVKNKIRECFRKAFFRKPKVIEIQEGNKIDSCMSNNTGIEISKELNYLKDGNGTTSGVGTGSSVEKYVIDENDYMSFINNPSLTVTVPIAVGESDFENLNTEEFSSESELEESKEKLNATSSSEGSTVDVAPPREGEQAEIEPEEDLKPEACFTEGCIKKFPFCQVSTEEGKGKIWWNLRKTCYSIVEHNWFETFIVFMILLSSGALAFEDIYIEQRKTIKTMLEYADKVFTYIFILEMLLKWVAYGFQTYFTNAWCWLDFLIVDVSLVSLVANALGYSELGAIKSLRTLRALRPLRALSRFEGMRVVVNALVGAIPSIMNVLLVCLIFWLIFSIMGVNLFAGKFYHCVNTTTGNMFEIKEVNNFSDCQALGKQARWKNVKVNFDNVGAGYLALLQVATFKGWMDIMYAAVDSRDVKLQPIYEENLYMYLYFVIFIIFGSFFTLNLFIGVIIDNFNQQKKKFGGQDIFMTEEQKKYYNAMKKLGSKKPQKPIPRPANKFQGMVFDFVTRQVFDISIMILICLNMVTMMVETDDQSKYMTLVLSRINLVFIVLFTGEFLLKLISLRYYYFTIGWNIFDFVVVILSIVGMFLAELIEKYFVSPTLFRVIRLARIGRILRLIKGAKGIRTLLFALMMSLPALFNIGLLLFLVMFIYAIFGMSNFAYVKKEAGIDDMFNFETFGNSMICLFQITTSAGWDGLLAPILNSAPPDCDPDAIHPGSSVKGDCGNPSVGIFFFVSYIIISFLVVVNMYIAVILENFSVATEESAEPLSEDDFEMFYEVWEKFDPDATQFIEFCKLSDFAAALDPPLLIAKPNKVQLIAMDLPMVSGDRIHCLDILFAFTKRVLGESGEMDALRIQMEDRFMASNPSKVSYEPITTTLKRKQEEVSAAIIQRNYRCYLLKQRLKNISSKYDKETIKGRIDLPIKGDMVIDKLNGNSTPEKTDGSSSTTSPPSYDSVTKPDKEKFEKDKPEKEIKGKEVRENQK
T6 sequence (Q15858 other isoform, or with tags, fused parts or gaps): as the sequence (Q15858 other isoform, or with tags, fused parts or gaps) above
T6 sequence (O60939 30-215, further chain): as the sequence (O60939 30-215, further chain) above
T6 sequence (Q07699 19-218, further chain): as the sequence (Q07699 19-218) above

Q: With CC[C@H](C)[C@H](NC(=O)[C@H](CCCCN)NC(=O)[C@H](Cc1c[nH]c2ccccc12)NC(=O)[C@H](CCCCN)NC(=O)[C@@H]1CSSC[C@@H]2NC(=O)[C@H](CCC(=O)O)NC(=O)[C@H](CC(N)=O)NC(=O)[C@H](CCCCN)NC(=O)CNC(=O)[C@@H]3CCCN3C(=O)[C@H]([C@@H](C)O)NC(=O)[C@@H]3CSSC[C@H](NC(=O)[C@H](C(C)C)NC(=O)[C@H](CCCNC(=N)N)NC(=O)[C@H](CC(N)=O)NC(=O)[C@@H]4CCCN4C(=O)[C@H](CSSC[C@H](NC(=O)[C@H](C)N)C(=O)N[C@@H](CCCCN)C(=O)NCC(=O)N[C@@H](C(C)C)C(=O)N[C@@H](Cc4ccccc4)C(=O)N[C@@H](CC(=O)O)C(=O)N4CCC[C@H]4C(=O)N3)NC2=O)C(=O)N[C@@H](CO)C(=O)N[C@@H](CC(=O)O)C(=O)N[C@@H](CCCCN)C(=O)N[C@@H](Cc2c[nH]cn2)C(=O)N[C@@H](CCCCN)C(=O)N[C@@H](Cc2c[nH]c3ccccc23)C(=O)N1)C(=O)O [Cl6a] (H-ACKGVFDPCTPGKNECCPNRVCSDKHKWCKWKI-OH; disulfide 2-17, 9-22, 16-29; N-terminus and C-terminus assumed) as the compound, how does the “Fold selectivity over NaV1.4” value (NaV1.7 over NaV1.4) read?
A: Its value is ~ 40 fold.

Q: What about the IC50 (mNaV1.6) of the same compound?
A: The IC50 was 9.2 ± 1.3 nM.

Q: And the “Inhibition of mNaV1.6 current” value (mNaV1.6)?
A: The value was “completely inhibited”.

Q: What about the IC50 (rNaV1.4) of the same compound?
A: The IC50 was 480 ± 100 nM.

Q: And the “Inhibition of rNaV1.4 current” value (rNaV1.4)?
A: Its value is “decreased”.

Q: And the IC50 (rNaV1.2)?
A: Its IC50 is 56.1 ± 13.6 nM.

Q: What about the “Inhibition of rNaV1.2 current” value (rNaV1.2) of the same compound?
A: The value was “decreased”.

Q: What about the “Inhibition of hNaV1.9 current” value (hNaV1.9) of the same compound?
A: The value was “No inhibitory effects”.

Q: What about the IC50 (rNaV1.3) of the same compound?
A: Its IC50 is 75.9 ± 6.3 nM.

Q: What about the “Inhibition of rNaV1.3 current” value (rNaV1.3) of the same compound?
A: The value was “decreased”.

Q: What about the “Reversibility of NaV1.7 inhibition on washing” value (NaV1.7 [1]; 5 min wash with bath solution) of the same compound?
A: The value was “irreversibly inhibit NaV1.7 channel currents; also recorded: irreversible; also recorded: sustained inhibition of NaV1.7 channel currents”.

Q: And the “τon (onset of NaV1.7 peak current inhibition)” value (NaV1.7 [1]; mean ± SEM)?
A: Its value is 36.2 ± 5.3 s.

Q: What about the IC50 (hNaV1.7) of the same compound?
A: The IC50 was 11 ± 2.5 nM.

Q: What about the “Inhibition of hNaV1.7 current” value (hNaV1.7) of the same compound?
A: The value was “completely inhibited”.

Q: And the “Inhibition of TTX-R sodium channels” value [2]?
A: The value was “not TTX-R (NaV1.5, NaV1.8, and NaV1.9)”.

Q: And the “Inhibition of hNaV1.5 current” value (hNaV1.5)?
A: The value was “No inhibitory effects”.

Q: And the “Inhibition of TTX-S sodium channels” value [3]?
A: Its value is “can inhibit TTX-S, but not TTX-R, sodium channels; also recorded: inhibitors of tetrodotoxin-sensitive (TTX-S), but not TTX-resistant, sodium channels; also recorded: inhibited TTX-S (NaV1.2–1.4, NaV1.6, and NaV1.7)”.

Q: What about the “Inhibition of rNaV1.8 current” value (rNaV1.8) of the same compound?
A: Its value is “No inhibitory effects”.

Q: What about the “Voltage dependence of activation, k (toxin)” value (NaV1.7 [4]; NaV1.7, mean ± SEM, n = 6–10, control 6.2 ± 0.3 (Cl6a), 6.7 ± 0.4 (Cl6b)) of the same compound?
A: Its value is 7.3 ± 0.4 mV.

Q: And the “Voltage dependence of inactivation, k (toxin)” value (NaV1.7 [4]; NaV1.7, mean ± SEM, n = 6–10, control −5.4 ± 0.3 (Cl6a), −5.2 ± 0.3 (Cl6b))?
A: The value was −5.7 ± 0.4 mV.

Q: And the “Voltage dependence of activation, V1/2 (toxin)” value (NaV1.7 [4]; NaV1.7, mean ± SEM, n = 6–10, control −19.5 ± 1.5 (Cl6a), −16.3 ± 0.4 (Cl6b))?
A: Its value is −22.3 ± 1.7 mV.

Q: What about the “Voltage dependence of inactivation, V1/2 (toxin)” value (NaV1.7 [4]; NaV1.7, mean ± SEM, n = 6–10, control −78.3 ± 1.8 (Cl6a), −70.1 ± 1.5 (Cl6b)) of the same compound?
A: Its value is −81.6 ± 2.4 mV.

Q: What about the “Repriming (toxin)” value (NaV1.7 [4]; NaV1.7, recovery at −100 mV, test pulse −10 mV, mean ± SEM, n = 9 (Cl6a), n = 7 (Cl6b), control 14.9 ± 2.4 (Cl6a), 6.3 ± 0.9 (Cl6b)) of the same compound?
A: Its value is 17.6 ± 2.5 ms.

Q: What about the “Reduction of NaV1.7 channel current” value (NaV1.7 [4]) of the same compound?
A: The value was 52.3%.

Q: And the “Effect on NaV1.7 activation and inactivation (gating)” value (NaV1.7 [4]; n = 6–10)?
A: The value was “does not alter channel activation, inactivation, or repriming kinetics; also recorded: cannot significantly change the activation kinetics”.

Q: Which “Reduction of NaV1.7 channel current” value (NaV1.7 [4]) does the source give for CC[C@H](C)[C@H](NC(=O)[C@H](CCCCN)NC(=O)[C@H](Cc1ccc(O)cc1)NC(=O)[C@H](CCCCN)NC(=O)[C@@H]1CSSC[C@@H]2NC(=O)[C@H](CCC(=O)O)NC(=O)[C@H](CC(=O)O)NC(=O)[C@H](CCCCN)NC(=O)CNC(=O)[C@@H]3CCCN3C(=O)[C@H]([C@@H](C)O)NC(=O)[C@@H]3CSSC[C@H](NC(=O)[C@H](C(C)C)NC(=O)[C@H](Cc4c[nH]cn4)NC(=O)[C@H](CC(N)=O)NC(=O)[C@@H]4CCCN4C(=O)[C@H](CSSC[C@H](NC(=O)[C@H](C)N)C(=O)N[C@@H](CCCCN)C(=O)NCC(=O)N[C@@H]([C@@H](C)CC)C(=O)N[C@@H](Cc4ccccc4)C(=O)N[C@@H](C(C)C)C(=O)N[C@@H]([C@@H](C)O)C(=O)N3)NC2=O)C(=O)N[C@@H](CO)C(=O)N[C@@H](CO)C(=O)N[C@@H](CCCCN)C(=O)N[C@@H](Cc2c[nH]cn2)C(=O)N[C@@H](CCCCN)C(=O)N[C@@H](Cc2c[nH]c3ccccc23)C(=O)N1)C(=O)O [Cl6b] (H-ACKGIFVTCTPGKDECCPNHVCSSKHKWCKYKI-OH; disulfide 2-17, 9-22, 16-29) here?
A: The value was 49.7%.

Q: What does the source list for “HWTX-I (ACKGVFDACTPGKNECCPNRVCSDKHKWCKWKL; ends and bridges not checked; cysteine pairing not given here; UniProt P56676 49-81, looked up)”?
A: N-type calcium channel inhibition (N-type calcium channels): inhibitor of N-type calcium channels; TTX-sensitive sodium channel inhibition [5]: inhibitor of N-type calcium channels and a TTX-sensitive sodium channel

Q: With HWTX-IV as the compound, how does the “Binding site on NaV1.7” value (NaV1.7 [6]) read?
A: Its value is “site 4 toxins that interact with the DII S3–S4 linker of NaV1.7 channels”.
